Measured values from patent US20210188843A1, “QUINOLINE COMPOUNDS AND THEIR PREPARATION AND USE AS ANTIMALARIAL AGENTS” (The United States of America,as represented by the …, priority 2018, published 2021).
In brackets after ≈: the same amount, converted by molar mass.

Columns and labels:
[1] = Microsomal stability (rat); format: in vitro ADME; conditions: rat microsomes, Table 1, read-out: Microsomal Stability (rat) T1/2
[2] = system: Asexual parasites of P. falciparum strain 3D7; assay: In vitro drug activity on asexual parasites (SYBR Green assay); format: cell-based; conditions: Plasmodium falciparum; Table 1; P. falciparum 3D7 asexual stage, 72 h; read-out: Asexual EC50
In short: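 Growth was measured by SYBR Green I fluorescence (excitation 490 nm, emission 520 nm) after freeze-thaw lysis and 30 min staining at room temperature. Parasites (0.5% parasitemia, 2% hematocrit) had been incubated 72 h with compound, DMSO below 0.5%. Conditions were run in duplicate with no-drug and RBC-alone controls.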

Solubility pH 7.4 = format: physicochemical; conditions: aqueous buffer, Table 1
PAMPA permeability = format: in vitro ADME; conditions: Table 1

Cc1ccc(C#N)cc1-n1c(=N)n(C)c2cnc3ccc(-c4cnc5ccccc5c4)cc3c21 [Compound 105, 3-(2-imino-3-methyl-8-(quinolin-3-yl)-2,3-dihydro-1H-imidazo[4,5-c]quinolin-1-yl)-4-methylbenzonitrile]
half-life [1]: > 30 min
EC50 [2]: 714 nM
solubility (Solubility pH 7.4): > 44 µg/mL
Papp (PAMPA permeability): 1150 ×10⁻⁶ cm/s

Cc1ccc(C#N)cc1-n1c(=N)n(C)c2cnc3ccc(-c4ccc(OCCCN(C)C)nc4)cc3c21 [Compound 106, 3-(8-(6-(3-(dimethylamino)propoxy)pyridin-3-yl)-2-imino-3-methyl-2,3-dihydro-1H-imidazo[4,5-c]quinolin-1-yl)-4-methylbenzonitrile]
half-life [1]: > 30 min
EC50 [2]: 140 nM
solubility (Solubility pH 7.4): > 49 µg/mL
Papp (PAMPA permeability): 1.2 ×10⁻⁶ cm/s

Cc1ccc(C#N)cc1-n1c(=N)n(C)c2cnc3ccc(-c4ccc5[nH]ncc5c4)cc3c21 [Compound 107, 3-(2-imino-8-(1H-indazol-5-yl)-3-methyl-2,3-dihydro-1H-imidazo[4,5-c]quinolin-1-yl)-4-methylbenzonitrile]
half-life [1]: 22.9 min
EC50 [2]: 12.9 nM
solubility (Solubility pH 7.4): > 42 µg/mL
Papp (PAMPA permeability): 22.6 ×10⁻⁶ cm/s

Cc1cc(N2CCN(C)CC2)c(C#N)cc1-n1c(=N)n(C)c2cnc3ccc(-c4ccc(Cl)cc4)cc3c21 [Compound 108, 5-(8-(4-chlorophenyl)-2-imino-3-methyl-2,3-dihydro-1H-imidazo[4,5-c]quinolin-1-yl)-4-methyl-2-(4-methylpiperazin-1-yl)benzonitrile]
half-life [1]: > 30 min
EC50 [2]: 464 nM
solubility (Solubility pH 7.4): 37.6 µg/mL (≈ 72 µM)
Papp (PAMPA permeability): 255 ×10⁻⁶ cm/s

CC(=O)N1CCN(c2cc(C)c(-n3c(=N)n(C)c4cnc5ccc(-c6ccc(Cl)cc6)cc5c43)cc2C#N)CC1 [Compound 109, 2-(4-acetylpiperazin-1-yl)-5-(8-(4-chlorophenyl)-2-imino-3-methyl-2,3-dihydro-1H-imidazo[4,5-c]quinolin-1-yl)-4-methylbenzonitrile]
half-life [1]: > 30 min
EC50 [2]: 4.33 nM
solubility (Solubility pH 7.4): < 1 µg/mL
Papp (PAMPA permeability): 838 ×10⁻⁶ cm/s

Cc1cc(N2CCC2)c(C#N)cc1-n1c(=N)n(C)c2cnc3ccc(-c4ccc(Cl)cc4)cc3c21 [Compound 110, 2-(azetidin-1-yl)-5-(8-(4-chlorophenyl)-2-imino-3-methyl-2,3-dihydro-1H-imidazo[4,5-c]quinolin-1-yl)-4-methylbenzonitrile]
half-life [1]: > 30 min
EC50 [2]: 373 nM
solubility (Solubility pH 7.4): < 1 µg/mL
Papp (PAMPA permeability): 176 ×10⁻⁶ cm/s

Cc1cc(N2CCCCC2)c(C#N)cc1-n1c(=N)n(C)c2cnc3ccc(-c4ccc(Cl)cc4)cc3c21 [Compound 112, 5-(8-(4-chlorophenyl)-2-imino-3-methyl-2,3-dihydro-1H-imidazo[4,5-c]quinolin-1-yl)-4-methyl-2-(piperidin-1-yl)benzonitrile]
half-life [1]: > 30 min
EC50 [2]: 1830 nM
solubility (Solubility pH 7.4): < 1 µg/mL
Papp (PAMPA permeability): 1280 ×10⁻⁶ cm/s

Cc1ccc(C#N)cc1-n1/c(=N/S(N)(=O)=O)n(C)c2cnc3ccc(-c4cccc(F)c4)cc3c21 [Compound 116]
half-life [1]: 17.9 min
EC50 [2]: 27.8 nM
solubility (Solubility pH 7.4): < 1 µg/mL
Papp (PAMPA permeability): 1070 ×10⁻⁶ cm/s

Cc1cc(N2CC3(COC3)C2)c(C#N)cc1-n1c(=N)n(C)c2cnc3ccc(-c4ccc(Cl)cc4)cc3c21 [Compound 121, 5-(8-(4-chlorophenyl)-2-imino-3-methyl-2,3-dihydro-1H-imidazo[4,5-c]quinolin-1-yl)-4-methyl-2-(2-oxa-6-azaspiro[3.3]heptan-6-yl)benzonitrile]
half-life [1]: > 30 min
EC50 [2]: 148 nM
solubility (Solubility pH 7.4): 1.3 µg/mL (≈ 2.5 µM)
Papp (PAMPA permeability): 6.2 ×10⁻⁶ cm/s

COC(=O)/N=c1\n(C)c2cnc3ccc(-c4ccc(C)nc4)cc3c2n1-c1cc(C#N)ccc1C [Compound 125, methyl (E)-(1-(5-cyano-2-methylphenyl)-3-methyl-8-(6-methylpyridin-3-yl)-1,3-dihydro-2H-imidazo[4,5-c]quinolin-2-ylidene)carbamate]
half-life [1]: > 30 min
EC50 [2]: 1.2 nM
solubility (Solubility pH 7.4): 12.5 µg/mL (≈ 27 µM)
Papp (PAMPA permeability): 243 ×10⁻⁶ cm/s
